Test results reported in patent US10040815B2, “3-substituted 5-amino-6H-thiazolo[4,5-d]pyrimidine-2,7-dione compounds for the treatment and prophylaxis of virus infection” (Hoffmann-La Roche Inc., priority 2014, dated 2018).

Columns and labels:
human TLR7 = human TLR7 (Homo sapiens (Human), UniProt Q9NYK1); assay: HEK293-Blue-hTLR-7 cells assay (SEAP reporter, NF-κB activation); type: cell-based; details: HEK293-Blue-hTLR-7 cells, 20 hours incubation, SEAP reporter; read-out: HEK293- hTLR-7 EC50
From the text: HEK293-Blue-hTLR-7 Cells Assay: A stable HEK293-Blue-hTLR-7 cell line was purchased from InvivoGen (Cat.#: hkb-htlr7, San Diego, Calif., USA). These cells were designed for studying the stimulation of human TLR7 by monitoring the activation of NF-κB. A SEAP (secreted embryonic alkaline phosphatase) reporter gene was placed under the control of the IFN-β[…] minimal promoter fused to five NF-κB and AP-1-binding sites. The SEAP was induced by activating NF-κB and AP-1 via stimulating HEK-Blue hTLR7 cells with TLR7 ligands. Therefore the reporter expression was regulated by the NF-κB promoter upon stimulation of human TLR7 for 20 hours. The cell culture supernatant SEAP reporter activity was determined using QUANTI-Blue™ kit (Cat.#: rep-qb1, Invivogen, San Diego, Calif., USA) at a wavelength of 640 nm, a detection medium that turns purple or blue in the presence of alkaline phosphatase. […] Then 20 μL of the supernatant from each well was incubated with 180 μL Quanti-blue substrate solution at 37° C. for 2 hours and the absorbance was read at 620˜655 nm using a spectrophotometer. […] Hiroaki Hemmi et al, Nature Immunology 3, 196-200 (2002).

murine TLR7 = murine TLR7 (Mus musculus (Mouse), UniProt P58681); assay: HEK293-Blue-mTLR7 cell assay (SEAP reporter); type: cell-based; details: HEK293-Blue-mTLR7 cells, 20 hours incubation; read-out: EC50 of murine TLR7 activation
Experimental: FIG. 1: Example 1-A activates murine TLR7 in a HEK-Blue-mTLR assay. The cells were incubated with Example 1-A and a positive control GS-9620 at indicated concentrations for 20 hours. The activation of murine TLR7 was measured using a Quanti-Blue assay.
TLR7 Agonist Example 1-A Activates Murine TLR7
The potency of the TLR7 agonist Example 1-A activating murine TLR7 was assessed using a stable HEK293-Blue-mTLR7 cell line available from InvivoGen (Cat.#: hkb-mtlr7, San Diego, Calif., USA). Similar to the HEK293-Blue-hTLR7 as described in Example 43, the HEK293-Blue-mTLR7 is designed for studying the stimulation of murine TLR7 by monitoring the activation of NF-κB. A SEAP reporter gene was placed under the control of the IFN-β minimal promoter fused to five NF-κB and AP-1-binding sites. The SEAP expression was induced by the activation of NF-κB and AP-1 upon stimulation of murine TLR7 with TLR7 ligands. SEAP expression in cell culture supernatant was determined using a QUANTI-Blue™ kit (Cat.#: rep-qb1, Invivogen, San Diego, Calif., USA), a detection medium that turns purple/blue in the presence of alkaline phosphatase, at a wavelength of 655 nm. […]

murine PBMC = assay: In vitro cytokine induction in murine PBMC (multiplex assay); details: 2 to 10 μM, 24 hours, dose-dependent
Experimental: Supernatants were collected at 24 hour post treatment and cytokine levels in supernatants were assessed by a multiplex assay.
50 μL of cell culture medium was collected and analyzed with a 36 plex Procarta multiplex kit (ebioscience EPX360-26092-901, eBioscience), which measured the levels of 15 cytokine analytes, following the manufacturer's instruction.

Chain of murine TLR7 (P58681 27-1050 limits assumed): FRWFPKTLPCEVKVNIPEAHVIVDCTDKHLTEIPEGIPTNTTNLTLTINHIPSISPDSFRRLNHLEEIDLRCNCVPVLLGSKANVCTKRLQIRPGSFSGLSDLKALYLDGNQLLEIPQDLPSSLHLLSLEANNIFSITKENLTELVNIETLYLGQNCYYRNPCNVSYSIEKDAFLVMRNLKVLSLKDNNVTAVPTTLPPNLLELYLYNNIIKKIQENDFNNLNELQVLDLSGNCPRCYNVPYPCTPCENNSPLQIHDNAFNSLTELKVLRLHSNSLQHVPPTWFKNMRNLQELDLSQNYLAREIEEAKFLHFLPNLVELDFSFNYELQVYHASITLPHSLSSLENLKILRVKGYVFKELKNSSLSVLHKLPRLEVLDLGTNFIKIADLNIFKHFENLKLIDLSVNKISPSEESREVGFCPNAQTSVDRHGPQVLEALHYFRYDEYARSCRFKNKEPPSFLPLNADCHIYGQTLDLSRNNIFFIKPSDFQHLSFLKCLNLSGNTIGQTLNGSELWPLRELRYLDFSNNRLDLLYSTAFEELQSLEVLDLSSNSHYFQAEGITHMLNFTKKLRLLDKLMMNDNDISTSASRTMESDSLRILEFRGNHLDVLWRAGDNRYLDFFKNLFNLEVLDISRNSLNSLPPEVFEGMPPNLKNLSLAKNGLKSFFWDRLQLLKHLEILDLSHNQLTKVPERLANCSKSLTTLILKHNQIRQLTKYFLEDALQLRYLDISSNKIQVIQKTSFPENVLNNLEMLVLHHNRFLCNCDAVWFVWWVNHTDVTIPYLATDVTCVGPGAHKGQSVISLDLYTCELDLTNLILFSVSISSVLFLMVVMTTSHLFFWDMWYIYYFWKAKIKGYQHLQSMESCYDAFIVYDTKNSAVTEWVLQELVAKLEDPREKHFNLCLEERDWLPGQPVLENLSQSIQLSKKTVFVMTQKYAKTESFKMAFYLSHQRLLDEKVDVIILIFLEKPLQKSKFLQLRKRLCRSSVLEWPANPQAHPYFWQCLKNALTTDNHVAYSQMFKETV
Chain of human TLR7 (Q9NYK1 27-1049): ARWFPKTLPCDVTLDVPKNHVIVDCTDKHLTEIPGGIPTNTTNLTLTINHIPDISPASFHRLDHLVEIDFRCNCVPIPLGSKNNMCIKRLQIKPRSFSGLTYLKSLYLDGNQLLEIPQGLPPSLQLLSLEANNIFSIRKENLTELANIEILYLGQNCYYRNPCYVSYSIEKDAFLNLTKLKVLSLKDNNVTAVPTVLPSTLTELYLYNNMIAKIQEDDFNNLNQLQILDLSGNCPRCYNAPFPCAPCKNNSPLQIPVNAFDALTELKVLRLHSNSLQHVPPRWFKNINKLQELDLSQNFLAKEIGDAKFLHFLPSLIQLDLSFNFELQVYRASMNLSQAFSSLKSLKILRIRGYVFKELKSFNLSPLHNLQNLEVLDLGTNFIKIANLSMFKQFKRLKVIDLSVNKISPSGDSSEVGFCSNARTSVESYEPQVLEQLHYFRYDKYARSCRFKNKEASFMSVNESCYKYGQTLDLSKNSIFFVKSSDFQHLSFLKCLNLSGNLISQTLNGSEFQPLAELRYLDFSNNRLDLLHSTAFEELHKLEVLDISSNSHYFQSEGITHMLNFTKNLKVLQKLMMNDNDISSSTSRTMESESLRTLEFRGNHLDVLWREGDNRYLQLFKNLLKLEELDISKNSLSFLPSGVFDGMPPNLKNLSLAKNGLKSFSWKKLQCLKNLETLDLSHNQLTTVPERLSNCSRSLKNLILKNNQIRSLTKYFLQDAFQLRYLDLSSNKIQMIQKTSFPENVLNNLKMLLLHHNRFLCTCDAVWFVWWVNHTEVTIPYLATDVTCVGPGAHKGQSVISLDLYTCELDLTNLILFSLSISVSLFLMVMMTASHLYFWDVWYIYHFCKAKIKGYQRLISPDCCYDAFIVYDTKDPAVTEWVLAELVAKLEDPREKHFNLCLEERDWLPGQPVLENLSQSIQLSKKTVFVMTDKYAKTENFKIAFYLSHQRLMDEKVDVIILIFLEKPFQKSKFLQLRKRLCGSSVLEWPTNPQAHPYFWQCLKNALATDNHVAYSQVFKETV

## CCC(O)[C@@H]1C[C@@H](O)[C@H](n2c(=O)sc3c(=O)[nH]c(N)nc32)O1 (single isomer, unassigned) [Example 1-A]
Human TLR7
  EC50: 52 µM
Murine TLR7
  EC50: 71.8 µM
Murine PBMC
  IFNα induction: high levels
  IL-6 induction: high levels
  IP10 induction: high levels
  TNFα induction: high levels
